For 1 compound, EC50 results are on record in patent EP0165781A1, “Aromatase inhibiting N-substituted imidazole derivatives” (ELI LILLY AND COMPANY, priority 1984, dated 1985).

The test has as its target T1, aromatase (Rattus norvegicus, UniProt P22443).
T1 construct: ovarian microsomes are obtained from rats treated with pregnant mares serum gonadotropin; from tissue; host or cells: ovarian microsomes of rats treated with pregnant mares serum gonadotropin
T1 sequence (P22443 1-508): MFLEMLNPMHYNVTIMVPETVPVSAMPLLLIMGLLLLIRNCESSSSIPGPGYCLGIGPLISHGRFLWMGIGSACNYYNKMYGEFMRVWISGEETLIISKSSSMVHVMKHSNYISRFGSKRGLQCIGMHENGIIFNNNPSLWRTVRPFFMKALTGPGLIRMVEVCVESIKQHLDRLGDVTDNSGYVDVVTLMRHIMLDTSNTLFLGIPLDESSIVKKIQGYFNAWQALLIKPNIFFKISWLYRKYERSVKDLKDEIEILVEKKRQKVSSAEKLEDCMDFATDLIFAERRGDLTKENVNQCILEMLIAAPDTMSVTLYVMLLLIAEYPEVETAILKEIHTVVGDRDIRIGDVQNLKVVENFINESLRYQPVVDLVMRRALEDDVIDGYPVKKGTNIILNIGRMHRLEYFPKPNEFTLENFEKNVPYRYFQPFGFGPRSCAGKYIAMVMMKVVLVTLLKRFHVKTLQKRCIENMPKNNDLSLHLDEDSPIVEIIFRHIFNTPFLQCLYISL
In words: isolated rat ovarian microsome aromatase inhibition (modified method of Brodie et al.). Format: biochemical. The conditions noted are these: rat ovarian microsomes; substrate androstenedione 0.1 µM; [3H]-H2O release; NADPH generating system; read-out: concentration of inhibitor required to produce a 50% inhibition of enzyme activity (EC50). On the procedure:
In this test system, ovarian microsomes are obtained from rats treated with pregnant mares serum gonadotropin. Test compounds are added to reaction vials containing […] 4-androstene-3,17-dione, 100,000 dpm 1,2[^3H]-androstenedione, the microsomes and a NADPH generating system. The concentrations of the inhibitors tested ranged between […]. […] Potency is determined based on the concentration of inhibitor in µM required to produce a 50% inhibition of enzyme activity (EC50) when the concentration of substrate (androstenedione) is 0.1 µM.

For the compound `CC(=O)N1CCN(c2ccc(OCC3COC(Cn4ccnc4)(c4ccc(Cl)cc4Cl)O3)cc2)CC1` (stereo not shown) [ketoconazole, 1-acetyl-4-[4-([2-(2,4-dichlorophenyl)-2-(1H-imidazol-1-ylmethyl)-1,3-dioxolan-4-yl]methoxy)-phenyl]piperazine], the EC50 came out at 1.1 µM.
